Data taken from US12048708B2 (RHOSHAN PHARMACEUTICALS, INC., priority 2017, dated 2024).

Assays:
[1] = Lyophilization of aspirin with lysine from water, HPLC analysis; assay type: physicochemical; details: ASA with lysine in water, 50 mg/ml, pH 6.5, HPLC
Description: The pH of the solution was 4.5. We added an additional amount of lysine to raise the pH of the bulk solution to 6.5. When all the drug was dissolved, a clear solution was formed. […] The product, however, was not lyophilized properly. The lyophilized cake collapsed.

[2] = Bulk solution stability of ASA in TBA-water system; assay type: physicochemical; details: 80/20, 70/30 and 60/40 TBA/water solutions, 24-hour storage at ambient storage conditions
Description: For a robust lyophilization process, the drug should not degrade in the bulk solution for lyophilization for at least 24 hours.

[3] = pH of bulk and reconstituted solutions of ASA lyophilized with bases from TBA/water; assay type: physicochemical
From the text: The pH of the solution was raised to 6.5 using 1N sodium hydroxide. Phase separation was observed, probably due to salting out of inorganic base from TBA/Water system. In the next trial, we first raised the pH of the solution to 5.0 using 1N sodium hydroxide, and then sodium phosphate, dibasic to raise the pH to 6.5. Sodium phosphate, dibasic was used for a better control of pH. Since we still observed phase separation it appears that inorganic bases or buffers may not be compatible with a 80% TBA/20% water system. We may require more water, for example, 70% TBA/30% water in the system to dissolve the alkalinizing agents.
Inorganic buffers such as sodium phosphate, dibasic, are not soluble in this solvent system.
The reconstituted solution pH was 4.71.
In the next trial, we investigated incorporation of […] to facilitate complete neutralization. […] Arginine was, then, slowly added to the slurry to neutralize aspirin. […] The apparent pH of the bulk solution was 6.49. 5 ml aliquots placed in flint vials and lyophilized. Upon completion of lyophilization, the content of vial was reconstituted with 5 ml of Water for Injection. […] The reconstituted solution pH was 4.8.
Based on the above studies, it was evident that larger amount of base is needed to neutralize ASA in the preferred solvent system. To incorporate more base in the bulk solution, we explored use of 60/40 TBA/water system as solvent for lyophilization. […] The apparent pH of the bulk solution was 6.31. […] The reconstituted solution pH was 4.41. […] We reconstituted the lyophile with 5 ml of buffer solution containing different concentrations of disodium phosphate.

rabbit ear vein = assay: IV irritation studies in rabbit ear vein; assay type: in vivo; details: ASA solution of different osmolalities (300 to 1300 mOsm/kg) injected in rabbit ear vein
From the text: It is an unexpected discovery or finding.

[4] = Particle size distribution (Malvern Master sizer 2000, dry powder volume distribution); assay type: physicochemical; details: API used to make the batches
From the text: Additionally, we have measured the particle size distribution of the lyophiles and API. The measurement of particle size (Malvern, Master sizer 2000) of all the samples were done by using dry powder volume distribution method.

[5] = cited from earlier work
platelet aggregation = details: following oral dosing, oral tablet or capsule; cited from earlier work

ASA degraded during the lyophilization process [1]: about 40% | degradation in bulk solution [2]: No appreciable degradation | apparent pH of the bulk solution ([3]; 2 g aspirin, 100 mg sodium hydroxide, about 1.6 g arginine in 100 ml 70/30 TBA/water): 6.49 | apparent pH of the bulk solution ([3]; 2 g of ASA and 400 mg sodium hydroxide in 100 ml 60/40 TBA/water): 6.31 | reconstituted solution pH ([3]; lyophile of 2 g aspirin, 100 mg sodium hydroxide, about 1.6 g arginine per 100 ml 70/30 TBA/water, 5 ml aliquot reconstituted with 5 ml Water for Injection): 4.8 | D50% (μm) [4]: 92.9 μm | D90% (μm) [4]: 249.5 μm | D100% (μm) [4]: 431.0 μm
Substance: o-acetylsalicylic acid [ASA]
IV irritation (rabbit ear vein): no irritation was observed | aqueous solubility [5]: about 3 mg/ml | time to 10% of potency loss ([5]; concentrated bulk solution): about 1.3 hours | onset of inhibition of platelet aggregation (platelet aggregation): approximately 40 minutes
